The structures appear in SMILES notation. Read-outs that look alike come from different tables or passages of the source. A value given as a limit tells only on which side of the number the result lay.

The term Inhibition denotes how much of the control response was suppressed. Low readings indicate little suppression, high ones strong suppression.

Test [1] deals with T1, MMP-9 (Homo sapiens, UniProt P14780).
T1 construct: purchased Calbiochem PF024-5UG
The test is described as follows: MMP-9 enzyme inhibition. The test is classed as biochemical. As for the experimental part:
The enzyme MMP-9 (gelatinase B; EC 3.4.24.35, human recombinant, Calbiochem Cat. PF024-5UG) is used. MMP-9 is first activated with APMA for 60 minutes at 37° C. Test compound and/or vehicle is then preincubated for 60 minutes at 37° C. with the active enzyme (11 nM) in a reaction mixture containing 50 mM MOPS (pH 7.2), 10 mM CaCl2 and 10 μM ZnCl2. The reaction is initiated by addition of 4 μM Mca-Pro-Leu-Gly-Leu-Dpa-Ala-Arg-NH2 (SEQ. ID NO. 1) and incubated for 120 minutes at 37° C. Enzyme activity is determined spectrofluorometrically by measuring the formation of fluorescent Mca-Pro-Leu-Gly (SEQ. ID NO. 2). Compounds are screened at 10 μM.

Test [2] concerns TNF-α. The test is described as follows: LPS induced TNF-α in hPBMC. It counts as cell-based. Conditions: Homo sapiens; hPBMC, 10 μM, LPS 1 μg/mL 24 hours; * average of two experiments; read-out: Inhibition (%) TNF-α. As for the experimental part: (§1) Human PBMC monocyte cells were cultured and incubated with compounds at different concentrations. Cells were then challenged with lipopolysaccharides (LPS) at a concentration of (1 μg/mL) for 24 hours. Cell supernatants were then analyzed for the presence of TNF-α, IL-6 and IL-1β cytokines by antibody directed enzyme-linked immunoassay. Dexamethasone was used as a positive control in the experiments.

Test [3] relates to IL-6. The test is described as follows: LPS induced IL-6 in hPBMC. The test is classed as cell-based. Conditions: Homo sapiens, LPS 1 μg/mL 24 hours. How it is done: as §1
Test [4] deals with IL-6. The test is described as follows: LPS induced sepsis model in mice, serum IL-6. The test is classed as in vivo. Conditions: Mus musculus; SW mice, oral 50 mg/kg body weight one hour before LPS, serum after 90 min. How it is done: (§2) SW mice were orally treated with vehicle, dexamethasone (5 mg/kg) and compounds at a dose of 50 mg/kg body weight one hour before LPS injection (10 μg/mouse, ip) and blood was collected after 90 min and measured serum TNF-α and IL-6 levels by ELISA.

For test [5], the system named is TNF-α. Kind of test: TNF-α secretion following LPS stimulation of mouse spleenic macrophages. The test is classed as cell-based. Conditions: Macrophage, LPS stimulated mouse spleenic macrophages, read-out: Mice Spleen Cells (% Inhibition) TNF-α.
The subject of test [6] is TNF-α. The test is described as follows: LPS induced sepsis model in mice, serum TNF-α. It counts as in vivo. Conditions: Mus musculus; SW mice, oral 50 mg/kg body weight one hour before LPS, serum after 90 min. How it is done:
as §2

For test [7], the system named is nitric oxide. The test is described as follows: Nitric oxide secretion following LPS stimulation of mouse spleenic macrophages. It counts as cell-based. Conditions: Macrophage, LPS stimulated mouse spleenic macrophages, read-out: Mice Spleen Cells (% Inhibition) NO.
Test [8] relates to TNF-α. The test is described as follows: LPS induced TNF-α in THP-1 monocytic cells. It counts as cell-based. Conditions: Homo sapiens, LPS 1 μg/mL 24 hours. How it is done:
Human THP-1 monocyte cells were cultured and incubated with compounds at different concentrations. Cells were then challenged with lipopolysaccharides (LPS) at a concentration of (1 μg/mL) for 24 hours. Cell supernatants were then analyzed for the presence of TNF-α cytokines by antibody directed enzyme-linked immunoassay from R & D System, Minneapolis, USA.

In test [9] the test system is IL-1β. Kind of test: LPS induced IL-1β in hPBMC. It counts as cell-based. Conditions: Homo sapiens, LPS 1 μg/mL 24 hours. How it is done: as §1
Test [10] concerns Phosphodiesterase type 4 (PDE4). The test is described as follows: PDE-4 enzyme inhibition. The test is classed as biochemical, human.
In test [11] the target is T2, MMP-1 (Homo sapiens, UniProt P03956).
T2 construct: purchased Calbiochem 444208; host or cells: human rheumatoid synovial fibroblast (natural source)
T2 sequence (P03956 100-469): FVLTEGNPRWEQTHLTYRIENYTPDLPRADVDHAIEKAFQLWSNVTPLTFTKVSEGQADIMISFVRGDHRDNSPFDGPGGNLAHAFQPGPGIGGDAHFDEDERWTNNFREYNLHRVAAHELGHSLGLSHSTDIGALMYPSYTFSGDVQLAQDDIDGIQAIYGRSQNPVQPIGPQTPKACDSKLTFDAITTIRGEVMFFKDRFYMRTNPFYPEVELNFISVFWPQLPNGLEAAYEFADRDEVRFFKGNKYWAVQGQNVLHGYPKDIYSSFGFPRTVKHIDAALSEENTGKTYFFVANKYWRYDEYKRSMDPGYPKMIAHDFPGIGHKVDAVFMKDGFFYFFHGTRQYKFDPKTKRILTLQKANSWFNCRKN
Kind of test: MMP-1 enzyme inhibition. The test is classed as biochemical. How it is done:
The enzyme MMP-1 (interstitial collagenase; EC 3.4.24.7, human rheumatoid synovial fibroblast, Calbiochem Cat. 444208) is used. MMP-1 is first activated with APMA for 60 minutes at 37° C. Test compound and/or vehicle is then preincubated for 60 minutes at 37° C. with the active enzyme ([…]) in a reaction mixture containing 50 mM MOPS (pH 7.2), 10 mM CaCl2 and 10 μM ZnCl2. The reaction is initiated by addition of Mca-Pro-Leu-Gly-Leu-Dpa-Ala-Arg-NH2 (SEQ. ID NO. 1) (4 μM) and incubated for 120 minutes at 37° C. The N-terminal protecting group Mca is 7-methoxycoumarin-4-yl acetyl. The amino acid Dpa is N^3-(2,4-dinitrophenyl)-L-diaminopropanoyl. Enzyme activity is determined spectrofluorometrically by measuring the formation of fluorescent Mca-Pro-Leu-Gly (SEQ. ID NO. 2). Compounds are screened at 10 μM.

Test [12] deals with T3, Phosphodiesterase type-3 (PDE3) (Homo sapiens, UniProt Q14432).
T3 construct: from tissue; host or cells: human platelets
T3 sequence (Q14432 whole entry): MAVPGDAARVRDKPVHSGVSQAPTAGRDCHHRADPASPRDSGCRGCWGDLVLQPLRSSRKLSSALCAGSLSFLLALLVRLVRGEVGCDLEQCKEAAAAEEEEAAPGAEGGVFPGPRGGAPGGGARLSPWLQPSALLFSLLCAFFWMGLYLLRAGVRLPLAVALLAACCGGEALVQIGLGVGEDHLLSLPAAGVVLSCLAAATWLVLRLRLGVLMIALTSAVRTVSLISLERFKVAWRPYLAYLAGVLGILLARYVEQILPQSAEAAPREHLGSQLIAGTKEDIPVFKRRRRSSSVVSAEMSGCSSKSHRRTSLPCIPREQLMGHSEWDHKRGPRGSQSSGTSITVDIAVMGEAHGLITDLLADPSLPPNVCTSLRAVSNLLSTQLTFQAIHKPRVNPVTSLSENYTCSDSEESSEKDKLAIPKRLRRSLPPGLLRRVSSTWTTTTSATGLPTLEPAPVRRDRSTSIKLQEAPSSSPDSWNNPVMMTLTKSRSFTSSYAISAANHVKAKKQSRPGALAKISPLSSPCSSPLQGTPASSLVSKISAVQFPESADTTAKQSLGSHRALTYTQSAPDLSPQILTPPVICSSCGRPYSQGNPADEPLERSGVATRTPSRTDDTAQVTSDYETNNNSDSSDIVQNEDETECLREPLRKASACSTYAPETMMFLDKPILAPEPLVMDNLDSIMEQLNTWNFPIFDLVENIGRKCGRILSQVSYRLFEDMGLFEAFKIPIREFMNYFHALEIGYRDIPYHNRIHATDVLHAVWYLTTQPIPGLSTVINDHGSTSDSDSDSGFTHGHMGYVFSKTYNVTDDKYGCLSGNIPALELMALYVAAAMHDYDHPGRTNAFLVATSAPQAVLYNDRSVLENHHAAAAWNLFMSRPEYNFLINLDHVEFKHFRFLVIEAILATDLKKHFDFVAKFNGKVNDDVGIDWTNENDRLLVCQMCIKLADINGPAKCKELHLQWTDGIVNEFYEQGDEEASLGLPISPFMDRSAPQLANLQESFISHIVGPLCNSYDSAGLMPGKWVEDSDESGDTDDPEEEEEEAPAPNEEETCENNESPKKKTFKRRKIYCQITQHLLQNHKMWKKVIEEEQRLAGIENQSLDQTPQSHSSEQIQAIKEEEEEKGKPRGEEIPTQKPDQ
The test is described as follows: PDE-3 enzyme inhibition. It counts as biochemical.

The test system of test [13] is IL-12. Kind of test: IL-12 secretion following LPS stimulation of mouse spleenic macrophages. The test is classed as cell-based. From the text: Compound 6 of this class inhibited IL-12 production in mouse splenic macrophages stimulated with LPS for 72 hrs.
Test [14] concerns Collagen Induced Arthritis Model. Kind of test: Collagen induced arthritis model. The test is classed as in vivo. Conditions: male DBA/1 Lac mice, oral 50 mg/kg daily. As for the experimental part: Arthritis induced in male DBA/1 Lac mice with bovine collagen (100 μg/mouse). Booster dose was given on Day 21 and started treatment when clinical score was about 2. […] Dexamethasone was kept as positive control. Severity of each paw score was defined from 0=no erythma to 4=severe arthritis for the swollen paws with a maximum possible score of 16 for 4 paws (4×4) in one animal.

For test [15], the system named is T cell proliferation. The test is described as follows: Inhibition of T cell proliferation. The test is classed as cell-based, mice. Conditions: Mus musculus, T-cell, 10 μM. How it is done: SJL mice were immunized with keyhole limpet hemocyanin (KLH) in complete Freund's adjuvant (CFA). 12 days later regional lymph nodes were isolated and a proliferative response to KLH in the presence or absence of drug was performed (in presence of 3H thymidine). The results are expressed at Stimulation index (CPM+antigen/CPM no antigen). Similarly, mitogen induced concanavalin A (CON-A), IL-4, IL-2 induced T cell proliferation was measured in presence of compounds are shown in Table VI.

Test [16] deals with T4, Human recombinant TACE (Homo sapiens, UniProt P78536).
T4 construct: purchased R&D System 930-ADB; host or cells: Sf21 cells
T4 sequence (P78536 215-671 limits assumed): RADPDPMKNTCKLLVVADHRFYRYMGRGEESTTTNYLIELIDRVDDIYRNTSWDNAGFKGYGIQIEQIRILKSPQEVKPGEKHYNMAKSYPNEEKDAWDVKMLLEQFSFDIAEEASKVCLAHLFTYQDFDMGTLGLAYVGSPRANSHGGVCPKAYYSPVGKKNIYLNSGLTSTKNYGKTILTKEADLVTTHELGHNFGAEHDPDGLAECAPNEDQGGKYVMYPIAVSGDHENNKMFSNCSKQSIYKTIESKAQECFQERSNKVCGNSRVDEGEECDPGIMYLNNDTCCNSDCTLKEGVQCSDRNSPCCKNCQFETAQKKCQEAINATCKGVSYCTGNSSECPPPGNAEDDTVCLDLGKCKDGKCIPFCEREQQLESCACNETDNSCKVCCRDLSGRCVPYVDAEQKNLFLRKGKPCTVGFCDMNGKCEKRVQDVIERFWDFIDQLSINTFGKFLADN
Kind of test: TACE enzyme inhibition. The test is classed as biochemical. From the text: Tumor necrosis factor-α converting enzyme (TACE/ADAM-17) is responsible for the release of TNF-α, a potent proinflammatory cytokine associated with many chronic debilitating diseases such as rheumatoid arthritis and multiple sclerosis. TNF-α also induces angiogenesis, promotes fibroblast proliferation and can combine with receptors on selected tumor cells to induce cell lysis. TACE is also implicated in amyloid precursor protein secretion. Human recombinant TACE expressed in Sf21 cells (R&D System, 930-ADB) is used. Test compound and/or vehicle is incubated with the enzyme (25 ng/ml) and 10 μM Mca-P-L-A-Q-A-V-Dpa-R-S-S-S-R-NH2 (SEQ. ID NO. 3) in Modified Tris-buffer pH 9.0 for 30 minutes at 25° C. Enzyme activity is determined spectrofluorimetrically by measuring the formation of fluorescent Mca-P-L-A-Q-A-NH2 (SEQ. ID NO. 4). Compounds are screened at 10 μM.

T1 sequence (P14780 107-707 limits assumed): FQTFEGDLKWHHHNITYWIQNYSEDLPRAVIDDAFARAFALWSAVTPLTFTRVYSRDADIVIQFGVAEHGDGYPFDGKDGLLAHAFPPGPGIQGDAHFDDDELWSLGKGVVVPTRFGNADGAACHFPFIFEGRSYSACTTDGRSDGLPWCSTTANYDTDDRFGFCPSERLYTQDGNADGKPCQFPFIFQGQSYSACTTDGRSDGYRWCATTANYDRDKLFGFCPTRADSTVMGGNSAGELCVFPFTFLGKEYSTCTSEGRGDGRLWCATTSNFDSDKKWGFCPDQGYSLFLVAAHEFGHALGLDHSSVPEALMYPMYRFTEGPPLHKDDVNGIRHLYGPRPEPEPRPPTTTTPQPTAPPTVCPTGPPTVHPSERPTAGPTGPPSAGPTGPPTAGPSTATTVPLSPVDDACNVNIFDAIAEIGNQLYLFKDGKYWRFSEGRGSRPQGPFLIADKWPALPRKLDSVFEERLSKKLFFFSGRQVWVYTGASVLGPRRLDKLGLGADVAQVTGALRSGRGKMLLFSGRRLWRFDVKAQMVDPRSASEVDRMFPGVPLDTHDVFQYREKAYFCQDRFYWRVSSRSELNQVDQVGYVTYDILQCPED

Regarding `Cl.NC(Cc1ccc(Oc2ccc(C(=O)NO)cc2)cc1)C(=O)OCc1ccccc1` (stereo not drawn) [Compound 6, 2-amino-3-[4-(4-hydroxycarbamoylphenoxy)-phenyl]-propionic acid benzyl ester hydrochloric acid salt], the inhibition at 10 µM in test [1] is less than 0%; in test [2], 69.6%; in test [3], 97%; in [5], 20%; in test [7], 20%; in test [8], 92%. Also, the inhibition at 10 µM in [9] was 73%; in test [11], 12%; in test [12] it was 3%; in test [13] (Macrophage, LPS stimulated mouse spleenic macrophages, 10 μM, read-out: Mice Spleen Cells (% Inhibition) IL-12) it was 80%; in test [15] (Anti CD3 Abs induced, read-out: Inhibition of T cell proliferation, Anti CD3 Abs), less than 80%; in test [15] (CON A induced, read-out: Inhibition of T cell proliferation, CON A), 61 to 80%. Further, the inhibition at 10 µM was 61 to 80% in test [15] (IL-2 induced, read-out: Inhibition of T cell proliferation, IL-2); 61 to 80% in test [15] (IL-4 induced, read-out: Inhibition of T cell proliferation, IL-4); less than 80% in test [15] (KLH specific, lymph nodes of KLH immunized SJL mice, read-out: Inhibition of T cell proliferation, KLH Specific); 15% in test [16]. Further, the figures for the inhibition at 50 mg/kg in test [4] and in test [6] were 30% and 50%, respectively. In addition, the “Inhibition at 10 μM (%) PDE-4” value in [10] was determined as 4%. The IL-12 production entry in test [13] (mouse splenic macrophages stimulated with LPS for 72 hrs) is “strongly inhibited IL-12 production”. Besides, the arthritic scores result in [14] is “significantly improved the arthritic scores”.

These data come from patent US7456292B2, “Hydroxamic acid-containing amino acid derivatives” (Bexel Pharmaceuticals, Inc., priority 2005, dated 2008).
